Key:
[1] = In vitro cytotoxicity against CHO cell lines (MTT assay); assay type: cell-based; details: Chinese hamster, MTT assay after 24 hours exposure
Protocol: Chinese Hamster Ovary (CHO) cell lines were grown as monolayers in Ham's F-10 nutrient mixture supplemented with 5% foetal calf serum and 5% heat-inactivated newborn calf serum. All experiments were performed on cells within 10 passages of each other, during which period phenotypes remained stable. All anthraquinone/amino acid conjugates were dissolved in water and not more than 0.01% DMSO. Activity was determined by an MTT assay after 24 hours exposure using essentially the method of Plumb et al (Plumb, J., Milroy, R and Kaye, S. B., 1989, Effects of the pH dependence of 3-([…])-2,5-diphenyl tetrazolium bromide formazan absorption on chemosensitivity, Cancer Research, 49: 4435-4440). Characteristics of the cell lines are described in full in Cummings et al 1996, Biochem.Pharmacol. 52: 979-990.

[2] = tested on: MAC 15A adenocarcinoma of the colon; assay: In vitro chemosensitivity against MAC 15A adenocarcinoma (MTT assay); assay type: cell-based; details: Mus musculus, MAC15A, 96 hours continuous exposure
Topoisomerase IIα = Topoisomerase IIα (Homo sapiens, UniProt P11388); assay: Topo II relaxation assay; assay type: biochemical; design: key: ‘—’ = Not active; details: unit not given; compound at 1, 10, 25 and 50 μM in protocol
Chain of Topoisomerase IIα (P11388 whole entry): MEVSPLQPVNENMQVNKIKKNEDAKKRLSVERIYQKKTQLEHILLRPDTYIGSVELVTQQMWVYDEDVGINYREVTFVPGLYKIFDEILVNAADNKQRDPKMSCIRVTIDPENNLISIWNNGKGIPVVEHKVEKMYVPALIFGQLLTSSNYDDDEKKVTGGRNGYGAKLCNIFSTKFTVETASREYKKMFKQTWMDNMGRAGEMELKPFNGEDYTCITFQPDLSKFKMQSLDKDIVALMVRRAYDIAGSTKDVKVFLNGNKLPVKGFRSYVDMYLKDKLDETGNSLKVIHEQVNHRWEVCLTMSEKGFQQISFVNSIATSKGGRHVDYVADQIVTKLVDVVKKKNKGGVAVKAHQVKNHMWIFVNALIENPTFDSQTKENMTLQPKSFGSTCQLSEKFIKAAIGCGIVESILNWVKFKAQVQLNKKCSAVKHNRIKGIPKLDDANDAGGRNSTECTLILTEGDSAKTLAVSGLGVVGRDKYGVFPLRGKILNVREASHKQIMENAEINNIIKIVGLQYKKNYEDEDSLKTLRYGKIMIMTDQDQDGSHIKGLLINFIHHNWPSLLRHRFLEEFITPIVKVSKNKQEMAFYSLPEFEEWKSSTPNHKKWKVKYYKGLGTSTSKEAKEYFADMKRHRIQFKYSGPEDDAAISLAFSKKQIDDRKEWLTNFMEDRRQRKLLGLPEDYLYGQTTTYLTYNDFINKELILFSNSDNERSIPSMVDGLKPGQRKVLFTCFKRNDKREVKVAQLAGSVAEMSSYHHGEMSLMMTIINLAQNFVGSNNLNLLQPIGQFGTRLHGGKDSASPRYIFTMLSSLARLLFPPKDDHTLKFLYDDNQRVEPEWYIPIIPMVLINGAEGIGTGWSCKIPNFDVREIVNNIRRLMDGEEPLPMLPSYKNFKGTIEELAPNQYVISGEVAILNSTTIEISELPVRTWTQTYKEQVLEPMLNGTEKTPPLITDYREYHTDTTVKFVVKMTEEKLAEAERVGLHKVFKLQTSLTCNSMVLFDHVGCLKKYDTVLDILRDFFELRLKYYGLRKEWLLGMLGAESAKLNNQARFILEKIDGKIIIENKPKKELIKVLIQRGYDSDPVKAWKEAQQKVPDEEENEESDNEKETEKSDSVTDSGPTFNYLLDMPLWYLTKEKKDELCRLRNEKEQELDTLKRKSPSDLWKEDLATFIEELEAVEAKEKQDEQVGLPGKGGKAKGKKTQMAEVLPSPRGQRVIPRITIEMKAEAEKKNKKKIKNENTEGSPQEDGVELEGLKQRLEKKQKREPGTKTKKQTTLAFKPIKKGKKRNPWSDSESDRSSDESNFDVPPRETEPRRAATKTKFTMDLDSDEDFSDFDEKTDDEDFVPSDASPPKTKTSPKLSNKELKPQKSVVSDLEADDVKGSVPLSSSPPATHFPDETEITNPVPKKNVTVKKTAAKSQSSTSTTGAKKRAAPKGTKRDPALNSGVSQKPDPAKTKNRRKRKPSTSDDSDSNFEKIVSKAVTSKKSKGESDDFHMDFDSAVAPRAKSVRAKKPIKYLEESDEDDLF
Protocol: (§1) Topo II Relaxation Assay Protocol
(§2) 10×Topo II Relaxation Buffer
(§3) 500 mM Tris-HCl (pH 7.5); 100 mM mgCI2; 50 mM EDTA; 300 mg/mI BSA; 10 mM DTT; −20° C.

Topoisomerase IIβ [3] = target: T1, Topoisomerase IIβ (Homo sapiens, UniProt Q02880); assay: Topo II relaxation assay; assay type: biochemical; design: key: ‘—’ = Not active; details: unit not given; compound at 1, 10, 25 and 50 μM in protocol
T1 sequence (Q02880 whole entry): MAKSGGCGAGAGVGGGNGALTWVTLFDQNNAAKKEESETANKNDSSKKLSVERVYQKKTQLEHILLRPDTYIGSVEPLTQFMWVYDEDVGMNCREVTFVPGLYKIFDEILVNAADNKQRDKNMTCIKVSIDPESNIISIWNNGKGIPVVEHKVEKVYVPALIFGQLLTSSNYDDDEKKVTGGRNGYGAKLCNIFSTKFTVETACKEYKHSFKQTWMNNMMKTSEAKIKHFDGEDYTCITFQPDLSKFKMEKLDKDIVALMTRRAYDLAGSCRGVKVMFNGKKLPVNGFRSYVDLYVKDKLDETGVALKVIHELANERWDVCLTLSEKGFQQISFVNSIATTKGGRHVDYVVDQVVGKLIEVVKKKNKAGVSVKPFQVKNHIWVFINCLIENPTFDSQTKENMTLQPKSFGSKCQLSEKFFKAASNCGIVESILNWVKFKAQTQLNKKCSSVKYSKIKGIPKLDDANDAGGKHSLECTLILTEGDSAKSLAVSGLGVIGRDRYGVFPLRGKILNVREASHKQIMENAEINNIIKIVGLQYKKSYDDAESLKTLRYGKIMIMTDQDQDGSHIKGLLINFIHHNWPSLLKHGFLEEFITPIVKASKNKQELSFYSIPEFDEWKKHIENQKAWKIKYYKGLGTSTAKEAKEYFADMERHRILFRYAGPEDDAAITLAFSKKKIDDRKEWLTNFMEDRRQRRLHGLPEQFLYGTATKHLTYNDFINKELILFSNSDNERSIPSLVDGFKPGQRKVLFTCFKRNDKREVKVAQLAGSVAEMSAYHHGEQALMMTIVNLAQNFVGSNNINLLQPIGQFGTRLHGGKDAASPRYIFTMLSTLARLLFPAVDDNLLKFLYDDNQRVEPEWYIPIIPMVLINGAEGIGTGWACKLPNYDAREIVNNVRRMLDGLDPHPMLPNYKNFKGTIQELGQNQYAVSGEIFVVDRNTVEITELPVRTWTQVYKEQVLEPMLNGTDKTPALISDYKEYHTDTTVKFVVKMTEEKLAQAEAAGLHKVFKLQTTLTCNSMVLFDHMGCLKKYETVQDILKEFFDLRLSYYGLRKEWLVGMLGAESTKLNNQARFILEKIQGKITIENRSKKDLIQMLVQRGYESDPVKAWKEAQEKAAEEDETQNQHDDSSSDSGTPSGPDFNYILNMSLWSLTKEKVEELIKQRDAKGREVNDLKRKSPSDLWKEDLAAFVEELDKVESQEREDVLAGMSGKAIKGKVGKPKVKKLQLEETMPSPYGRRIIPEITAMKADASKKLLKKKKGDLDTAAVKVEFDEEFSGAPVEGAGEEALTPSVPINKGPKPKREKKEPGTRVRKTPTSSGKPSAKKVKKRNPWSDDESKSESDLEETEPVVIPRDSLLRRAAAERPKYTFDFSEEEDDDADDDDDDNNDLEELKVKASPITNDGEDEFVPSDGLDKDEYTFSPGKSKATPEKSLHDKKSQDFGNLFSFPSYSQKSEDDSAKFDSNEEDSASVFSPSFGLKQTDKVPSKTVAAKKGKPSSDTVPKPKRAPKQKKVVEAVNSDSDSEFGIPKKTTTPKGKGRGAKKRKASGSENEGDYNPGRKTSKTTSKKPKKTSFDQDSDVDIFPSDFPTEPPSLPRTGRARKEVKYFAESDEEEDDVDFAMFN
Protocol: as §1, §2, §3

Topoisomerase IIβ [4] = target: T1, Topoisomerase IIβ; assay: Topo II cleavage assay; assay type: biochemical; details: unit not given; compound at 1, 10, 25 and 50 μM in protocol
Protocol: Topo II 5 μl (1-1 μg); […] Results are included in Table 3 below.

[5] = tested on: DNA: Calf thymus sodium salt; assay: DNA binding assay, Hoechst dye displacement; design: key: NB = Not binding; details: concentration required to displace 50% of the Hoescht Dye; 20 μM DNA, 2 μM dye
Protocol: The propensity of selected compounds to bind to DNA in the absence of topos was measured in order to identify compounds that would bind weakly, or not at all. […] A […] was used determine binding constants of the compound to DNA by displacement of either ethidium bromide (an intercalator) or Hoechst dye 33258 (a groove binder) which form a DNA-bound fluorescent complex measured by fluorescence spectroscopy.
DNA Binding Assay Protocol
In order to detect the strength and mode of anthraquinone compound binding to DNA the displacement of known DNA binders was detected by measuring the fluorescence of a DNA/fluorescent compound complex. The addition of known concentrations of ethidium bromide, an interchelator, and Hoescht Dye, a groove binder, cause a fluorescent DNA/binder complex that can be detected and the fluorescence quantified. The addition of anthraquinone compounds displaces the interchelators or groove binders, depending on the compound mode of DNA binding, and therefore reduces the fluorescence accordingly. The preferred binding action of compounds can be quantified by determining the reduction in fluorescence resulting from a given concentration of compound. The quantification of a compounds ability to bind to DNA is expressed, as the concentration required to displace 50% of the ethidium bromide or Hoescht Dye, thus reducing the fluorescence by 50%. Therefore, the values produced are QE50 for ethidium, bromide, or QH50 for Hoescht Dye.
Compound: 300, 60, 10 and 10/6gM (1.66 μM) solution concentrations were prepared for use in the assay to produce a range of compound. Concentrations. 100, 200 and 300 μl of each dilution were used in the assay reaction. This provides a range of concentrations: −30, 20, 10, 6, 4, 2, 1, 0.67, 0.33, 0.17, 0.11, 0.06, 0.00 μM in the assay environment. Intermediate concentrations can be utilised to enhance the accuracy of the displacement concentration determination.
Buffer: 100 mM Tris, NaCI 500 mM. DNA: Calf thymus sodium salt. Stock solution of 200 μM was prepared in 10× assay buffer. Dilution of DNA therefore provided the correct concentration of assay buffer in the assay cell.300 μg DNA was used in 3 ml reaction mixture therefore 20 μM DNA concentration. Hoescht Dye 2 μM final concentration, therefore 100 μl of a 60 μM stock solution was added to a 3 ml assay. Ethidium Bromide 2 μM final concentration therefore 100 μl of a 60 μM stock solution was added to a 3 ml assay. Distilled H2O Water was added to produce 3 ml reaction volume. Order of addition: 1. DNA, 2. Water, 3. Drug, 4. Dye
The assay was completed with both Hoescht Dye and Ethidium. Bromide for each compound. The ethidium bromide is a DNA inter-chelator, Hoescht Dye is a minor groove binder. 100, 200 and […] of the lowest compound dilution was assayed. This procedure was repeated with all further dilution's. This provided a curve of fluorescence intensity decrease with increasing compound concentration. QE50 and QH50 values were determined by extrapolating the concentration of compound at the point where the fluorescence intensity was reduced by 50%. Controls involving compound only and ethidium. bromide or Hoechst Dye without compound were carried out for each experiment. Two readings for each concentration of compound were performed per experiment, each experiment was repeated at least three times. Fluorometer: Perkin Elmer Luminescence Spectrometer LS 50B.

With `C[C@H](N)C(=O)OCCCCNc1cccc2c1C(=O)c1ccccc1C2=O.O=C(O)C(F)(F)F` [Example 43, 1-[4-(L-alanyloxy)butylamino]anthracene-9,10-dione trifluoroacetate] the IC50 at 24 h ([1]; CHO-ADR-1 cells, ADR line) was 6.6 µM, the IC50 at 24 h ([1]; CHO-ADR-r cells, ADR line) was 25.2 µM and the IC50 at 24 h ([1]; CHO-K1 cells) was 54 µM. For the same compound, the IC50 [2] was 2.6 µM, the “TopIIα Relax.” value (Topoisomerase IIα) was “—” and the “TopIIβ Relax.” value (Topoisomerase IIβ [3]) was 15. The “TopIIβ Cleave.” value (Topoisomerase IIβ [4]) was 25 and the “QH50 Minor groove binding” value [5] was “NB”.
In the case of `C[C@@H](N)C(=O)OCCCCNc1cccc2c1C(=O)c1ccccc1C2=O.O=C(O)C(F)(F)F` [Example 45, 1-[4-(D-alanyloxy)butylamino]anthracene-9,10-dione trifluoroacetate], the IC50 at 24 h ([1]; CHO-ADR-1 cells, ADR line) is reported as 46.3 µM, the IC50 at 24 h ([1]; CHO-ADR-r cells, ADR line) is reported as 31.5 µM and the IC50 at 24 h ([1]; CHO-K1 cells) is reported as 40.5 µM. For the same compound, the IC50 [2] was 2.9 µM, the “TopIIα Relax.” value (Topoisomerase IIα) was “—” and the “TopIIβ Relax.” value (Topoisomerase IIβ [3]) was 25. The “TopIIβ Cleave.” value (Topoisomerase IIβ [4]) was 20 and the “QH50 Minor groove binding” value [5] was “NB”.
